According to patent US6610270B1, “In vivo determination of metabolic function for use in therapy management” (Xanthus Life Sciences, Inc., priority 1998, dated 2003):

Assays:
[1] = system: N-acetyl transferase (NAT); experiment: NAT metaprobe 13C recovery in human urine; format: in vivo
Description: The tracers were ingested each time with 100 ml of a 10% aqueous solution of high fructose corn syrup. Urine samples were collected at 12, 24 and 36 hours. […] The analysis of each urine sampling interval was carried out in triplicate and the variation among replicates fell within 15%. […] Also, since aspartyl-N-acetyl-glucosamine pyranoside is rapidly synthesized and subsequently turned over by lysozomes, its rate of appearance in plasma can be determined, along with the plasma rate of appearance of N-acetylglucosamine, at shorter intervals post dosing. Thus, the MRI2 index could be computed within reach of the two-hour preferred sampling time frame for the practicable implementation of diagnostic procedures with metaprobes.

[2] = system: N-acetyl transferase (NAT); experiment: NAT metaprobe 13C recovery in urinary glucosamine fraction; format: in vivo, Sprague-Dawley rats; details: 5 mg/kg by gastric intubation, 24 hour urine, bile acid glucosamine fraction
Description: (§1) In the first experiment, six male Sprague-Dawley rats, weighing on average 300 grams, were studied while awake and unstressed after an overnight fast. […] Food and water were then given ad libitum. After receiving the metaprobes, the animals were kept in metabolic cages to facilitate collection of urine (Robinson, 1968).

[3] = system: glutamine-fructose-6-phosphate aminotransferase (GFAT); details: rat, in vivo
Description: as §1

[4] = molecular target: T1, Prolyl oligopeptidase (PO) (Homo sapiens, UniProt P48147); experiment: prolyl oligopeptidase metaprobe hydrolysis in bronchoalveolar lavage fluid; format: biochemical; details: Human BAL
T1 sequence (P48147 1-710): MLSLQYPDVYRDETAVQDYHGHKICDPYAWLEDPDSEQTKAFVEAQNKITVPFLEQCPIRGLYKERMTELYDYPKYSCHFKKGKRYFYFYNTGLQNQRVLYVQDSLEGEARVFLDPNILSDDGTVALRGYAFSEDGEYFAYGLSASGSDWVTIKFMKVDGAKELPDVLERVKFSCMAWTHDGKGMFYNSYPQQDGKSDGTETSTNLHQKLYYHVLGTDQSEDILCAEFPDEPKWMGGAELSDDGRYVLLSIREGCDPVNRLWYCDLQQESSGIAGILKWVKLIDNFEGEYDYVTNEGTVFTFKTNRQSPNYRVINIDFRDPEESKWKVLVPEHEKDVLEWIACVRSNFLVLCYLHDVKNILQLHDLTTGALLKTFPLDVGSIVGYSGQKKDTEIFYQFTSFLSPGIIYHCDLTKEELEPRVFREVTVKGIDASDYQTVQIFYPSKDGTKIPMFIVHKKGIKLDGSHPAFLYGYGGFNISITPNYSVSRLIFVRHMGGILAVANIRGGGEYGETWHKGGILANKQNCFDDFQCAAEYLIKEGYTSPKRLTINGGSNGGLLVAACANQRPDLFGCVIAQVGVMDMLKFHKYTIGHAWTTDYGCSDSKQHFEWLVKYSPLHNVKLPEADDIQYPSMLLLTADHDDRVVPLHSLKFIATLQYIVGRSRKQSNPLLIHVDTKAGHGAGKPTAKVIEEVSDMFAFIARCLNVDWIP

[5] = molecular target: T2, Prolyl oligopeptidase (PO) (Rattus norvegicus, UniProt O70196); experiment: prolyl oligopeptidase metaprobe hydrolysis in rat plasma, brain and lung preparations; format: biochemical
T2 sequence (O70196 1-710): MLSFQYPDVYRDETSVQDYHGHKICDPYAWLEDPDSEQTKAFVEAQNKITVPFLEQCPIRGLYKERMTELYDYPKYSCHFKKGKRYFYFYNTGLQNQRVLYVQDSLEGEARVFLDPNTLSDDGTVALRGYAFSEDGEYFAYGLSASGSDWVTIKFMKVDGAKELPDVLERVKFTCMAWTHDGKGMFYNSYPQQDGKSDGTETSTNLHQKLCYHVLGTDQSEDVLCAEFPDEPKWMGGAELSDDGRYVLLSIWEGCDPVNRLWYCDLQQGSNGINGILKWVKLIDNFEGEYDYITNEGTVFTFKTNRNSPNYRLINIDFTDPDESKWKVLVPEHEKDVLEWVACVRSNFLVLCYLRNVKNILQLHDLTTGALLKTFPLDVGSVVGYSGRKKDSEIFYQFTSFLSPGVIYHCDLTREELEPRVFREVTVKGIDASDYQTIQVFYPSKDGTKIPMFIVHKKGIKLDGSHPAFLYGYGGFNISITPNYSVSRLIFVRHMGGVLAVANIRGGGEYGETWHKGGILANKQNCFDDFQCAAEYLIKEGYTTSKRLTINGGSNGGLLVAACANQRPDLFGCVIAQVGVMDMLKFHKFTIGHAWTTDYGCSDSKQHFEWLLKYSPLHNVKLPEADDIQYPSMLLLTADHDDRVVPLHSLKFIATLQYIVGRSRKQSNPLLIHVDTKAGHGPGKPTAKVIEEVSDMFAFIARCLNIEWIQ

CC(=O)N[C@@H]1[C@@H](O)[C@H](O)[C@@H](CO)O[13CH]1O (some centres unmarked) [N-acetyl-1-^13C-glucosamine]
13C % Dose ([1]; time point 12 hr): .089 % Dose | 13C % Dose ([1]; time point 24 hr): .189 % Dose | 13C % Dose ([1]; time point 36 hr): .213 % Dose | percent recovery of 13C [2]: 0.15+/−0.073%

CC(=O)NC(CCC([15NH2])=O)C(=O)O (centres unmarked) [N-acetyl-5-^15N-glutamine]
normalized 15N/13C GFAT-MRI1 [3]: 24

CCO[13C](=O)[C@H](CC)NC(=O)[C@@H]1CCCN1C(=O)CNC(=O)OCc1ccccc1 [Prolyl oligopeptidase Metaprobe, N-carbobenzyloxy-glycyl-L-prolyl-L-2-aminobutyric [1-^13C] acid ethyl ester]
% Dose metabolized ([4]; Control, two hour incubation at 37° C.): 30 ± 4 % Dose | % Dose metabolized ([4]; Test sample, ARDS): 54 ± 13 % Dose | % Dose metabolized ([5]; Rat Brain homogenate (acetone powder), Control): 44 ± 8 % Dose | % Dose metabolized ([5]; Rat Lung homogenate (acetone powder), Control): 24 ± 12 % Dose | % Dose metabolized ([5]; Rat Plasma, Control): 2 ± 4 % Dose | % Dose metabolized ([5]; Rat Plasma, Test sample, Sepsis): 8 ± 5 % Dose
